Activity calls are given as the source filed them.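 Rule for the calls: active = compounds giving half or more protection of infected cells from virus-caused growth loss, again on retest; inactive = the rest.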 Where a SMILES comes first, the peptide text is derived from it. The star is where a group is joined. Boc = CC(C)(C)OC(=O)*; OSu = O=C1CCC(=O)N1O*
Tested on: CEM cells HIV-1 protection, formazan growth assay
Assay: NCI AIDS Antiviral Assay
Settings: for IC50: measured here: growth of uninfected CEM cells
Summary of the method: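 Protection of CEM cells against HIV-1 measured as cell growth via soluble formazan read-out, with five concentrations tested on both infected and uninfected cells; failure to protect may reflect toxicity.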

Compound: COC(OC)C1OC(CO)C(n2cc(F)c(=O)[nH]c2=O)C1O (stereo not drawn)
- EC50: > 200 µM
- IC50: > 200 µM

Compound: CC(CCc1nc2ccccc2o1)C1CCC2C3CC[C@@H]4C[C@H](O)CC[C@]4(C)C3C[C@H](O)[C@]12C (stereo partly drawn)
- EC50: > 50.1 µM
- IC50: 7.24 µM

Compound: Cc1ccc(NC(=O)C(=O)C2NC(=S)NC2=O)c([N+](=O)[O-])c1 (stereo not drawn)
- EC50: > 295 µM
- IC50: 129 µM

Compound: COc1cc2c(cc1OC)C1(c3ccccc3)ON=C(c3ccccc3)N1CS2 (stereo not drawn)
- EC50: > 9.33 µM
- IC50: > 9.33 µM

Compound: O=C1CN(c2ccccc2)C(=O)C1C(=O)Nc1ccc(Cl)c(Cl)c1 (stereo not drawn)
- EC50: > 3.98 µM
- IC50: 3.89 µM

Compound: SCCN1CCCN(CCS)CCC1
- EC50: > 200 µM
- IC50: 135 µM

Compound: CNC(=O)CCCNC(=O)CCCC(=O)N(C)C
- EC50: > 200 µM
- IC50: > 200 µM

Compound: CCOC(=O)c1nc2ccccc2nc1NCc1ccc(OC)cc1
- EC50: > 138 µM
- IC50: 70.8 µM

Compound: CC1=NN(c2ccccc2)C(=O)C1N=Nc1ccc(S(=O)(=O)Nc2nnc(C)s2)cc1 (stereo not drawn)
- outcome: inactive

Compound: CCOC(=O)C(/C(=N/NC(=O)OC)C(=O)Nc1ccc(C(C)=O)cc1)c1cnc2ccccc2n1 (stereo not drawn)
- EC50: > 39.8 µM
- IC50: > 39.8 µM

Compound: O=C1c2ccccc2C(=O)C1c1ccc2c(ccc3ccccc32)n1
- outcome: inactive

Compound: C=C(C)C(O)C(OCC)c1c(OC)ccc2ccc(=O)oc12 (stereo not drawn)
- EC50: > 200 µM
- IC50: > 200 µM

Compound: COC(=O)CCC1(CCC(=O)OC)CCCCCCC(CCC(=O)OC)(CCC(=O)OC)C(=O)C1=O
- EC50: > 200 µM
- IC50: > 200 µM

Compound: COc1ccc(NC(=S)N/N=C/c2c(C)n(C)n(-c3ccccc3)c2=O)cc1
- EC50: > 200 µM
- IC50: 115 µM

Compound: CCOC(=O)C1=C(NNC(=O)Cc2ccccc2)CSC1=Nc1ccccc1
- EC50: > 18.2 µM
- IC50: > 18.2 µM

Compound: COC(=O)c1ccc(C(=O)OC)c2nc3cc(C)ccc3nc12
- EC50: > 219 µM
- IC50: > 219 µM

Compound: COCc1cn(C2CC(F)C(CO)O2)c(=O)nc1N (stereo not drawn)
- EC50: > 457 µM
- IC50: > 457 µM

Compound: COc1ccc2cc(C(=O)O)ccc2c1OC
- EC50: > 200 µM
- IC50: > 200 µM

Compound: Cc1nsc2cc(Cl)n(C)c(=O)c12
- EC50: > 6.76 µM
- IC50: > 6.76 µM

Compound: COc1ccc(/C=C2\CCC(C)/C(=C\c3ccc(OC)c(OC)c3)C2=O)cc1OC (stereo not drawn)
- EC50: > 151 µM
- IC50: 7.94 µM

Compound: CCNCCNCC.[O-][Cl+3]([O-])([O-])[O-].[Pd+2].c1ccc(-c2ccccn2)nc1
- EC50: > 200 µM
- IC50: 30.9 µM

Compound: Cc1cccc2c1Oc1cc(Cl)ccc1C2NC(=O)CCN1CCN(CCO)CC1 (stereo not drawn)
- EC50: > 200 µM
- IC50: 13.5 µM

Compound: CC(C)(C)c1cc(C(C)(C)C)c2[n+]([O-])ssc1-2
- EC50: > 145 µM
- IC50: 20.4 µM

Compound: CC1C(c2ccc3c(c2)OCO3)c2cc3c(cc2OC1N1CCCCC1)OCO3 (stereo not drawn)
- EC50: > 200 µM
- IC50: 33.9 µM

Compound: NC(CSC[C@H](N)C(=O)O)C(=O)O (stereo partly drawn)
- outcome: inactive

Compound: C=CCNC(=S)/N=C/C(C(=O)Nc1ccc(Cl)cc1)=C(\C)O
- EC50: > 200 µM
- IC50: 129 µM

Compound: CC(NC(=O)C(NC(=O)OC(C)(C)C)C(C)C)C(=O)NCC(=O)ON1C(=O)CCC1=O (stereo not drawn) (Boc-Val-Ala-Gly-OSu; configuration not given here)
- EC50: > 200 µM
- IC50: 117 µM

Compound: CC/C(Cl)=N\OC(=O)NCc1ccc(F)cc1
- EC50: > 20 µM
- IC50: 4.47 µM

Compound: COc1ccc(/C(C)=N/NC(N)=S)cc1OC
- outcome: inactive

Compound: CCN=C1Nc2ccccc2-n2c(nn3nc4ccccc4c23)N1CC
- EC50: 5.37 µM
- IC50: > 200 µM

Compound: CC(C)(C)C(=O)/C=C/c1cccc(Oc2ccccc2)c1
- EC50: > 18.6 µM
- IC50: > 18.6 µM

Compound: O=S(O)CCCCCSSCCCCSSCCCCCS(=O)O
- outcome: inactive

Compound: O=C1CC([C@H](NC(=O)OCc2ccccc2)C(=O)O)ON1 (stereo partly drawn)
- outcome: inactive

Compound: CC(=O)CC(=O)N(CCN(C(=O)CC(C)=O)c1ccccc1)c1ccccc1
- EC50: > 178 µM
- IC50: > 178 µM

Compound: O=[N+]([O-])C=C1c2ccccc2-c2ccccc21
- outcome: inactive

Compound: Cc1cn(CC(=O)NCCCCO)c(=O)[nH]c1=O
- EC50: > 200 µM
- IC50: > 200 µM

Compound: Nc1nc2c(c(=O)[nH]1)N1CN(c3ccc(C(=O)NC(CCC(=O)O)C(=O)O)cc3)CCC1CN2 (stereo not drawn)
- EC50: > 347 µM
- IC50: 60.3 µM

Compound: O=C1/C(=C/c2ccc3c(c2)OCO3)SC2C=Nc3ccccc3N12 (stereo not drawn)
- EC50: > 2.24 µM
- IC50: > 2.24 µM

Compound: COC(=O)C1=C(C)N2CCCOC2(C)C(C(=O)OC)C1c1cccc(Cl)c1 (stereo not drawn)
- EC50: > 200 µM
- IC50: 112 µM

Compound: O=C(OCc1ccccc1)N1CC(O)C2OC3OC4(CCCCC4)OC3C21 (stereo not drawn)
- EC50: > 200 µM
- IC50: 170 µM

Compound: CC12CN3CC(C)(C1=O)C(=O)C(C)(C3)C2=O
- EC50: > 117 µM
- IC50: > 117 µM

Compound: COc1ccc(/C=C2\CCCc3ccccc3C2=O)cc1
- EC50: > 200 µM
- IC50: 0.145 µM

Compound: CCCCc1cc(=O)oc2c3c(c4c(c12)OC(C)(C)CC4)O[C@@H](C)[C@H](C)[C@@H]3O
- EC50: 2.69 µM
- IC50: 10.5 µM

Compound: Brc1cscc1Cc1cscc1Br
- EC50: > 200 µM
- IC50: 74.1 µM

Compound: COC(=O)c1ccccc1SSCCN
- EC50: > 200 µM
- IC50: 19.1 µM
